Data on three compounds can be found in patent US20250041313A1, “COMBINATION THERAPY FOR TREATMENT OF CANCER” (CITY OF HOPE, priority 2023, published 2025).

For series [1], the system named is H446 spheroids. The experiment in a line: Spheroid LDH cytotoxicity/death assay. The class given is cell-based, human. The conditions noted are these: 72 h. As to the method:
(§1) SBC3 and H446 cells were plated at a density of 10,000 cells per well in 96-well ULA round-bottomed plates (S-Bio, Hudson, NH) and incubated for 72 h at 37° C., 5% CO2, and 95% humidity. Spheroids were transferred to low cell attachment dishes, grown for two days, and treated with drug. After treatment, spheroid samples were run with Western blot assay. For spheroid mitochondria visualization, they were stained with 250 nM MitoTracker® Red CMXRos and Hoechst from ThermoFisher Scientific (Waltham, MA) for 2 h after drug treatment. Spheroids were washed, fixated with 4% PFA, transferred into 96-well flat glass-bottom black microplate (Cellvis, Mountain View, CA), and mounted in wells.
LDH activity was measured using LDH Cytotoxicity Assay Kit following the manufacturer protocol (Thermo Fisher Scientific, Waltham, MA). Briefly, H446 and SBC3 spheroids after 72 hours of drug treatments were mixed with 10 μl 10× lysis buffer and incubated for 45 min in cell culture incubator. 50 μl of lysed cells from each sample were used to measure absorbance by plate reader (Tecan Spark 10, Salzburg, Austria). Percentage of cell cytotoxicity/death was calculated by using the following formula: […]

In series [2] the test system is SBC3 spheroids. The experiment in a line: Immunoblotting of spheroid lysates. Type of series: cell-based, human. As to the method:
SCLC total cell lysates were prepared using RIPA (radioimmunoprecipitation assay lysis buffer) lysis buffer. Protein concentration was determined using DC Protein Assay Kit Bio-Rad (Hercules, CA). Samples were then run on SDS-PAGE in 4-15% polyacrylamide gels and transferred onto Immobilon membranes (Millipore, MO), blocked, incubated with specific primary antibodies at 4° C. overnight, and subsequently developed with secondary antibodies. The following primary antibody were used: pan-Actin, Phospho-DRP1 (Ser^616), Phospho-DRP1 (Ser^637), Histone H2B (V^119), Phospho-Histone H2A.X (Ser^139), Phospho-P53 (Ser^15), P-53, Cleaved PARP (Asp^214) (D64E10), Phospho-Chk1 (Ser^345) (133D3) and p21 were from Cell Signaling Technology (City of Industry, CA), β-Actin (Sigma-Aldrich, St. Luis, MO), Phospho RNA Polymerase II (S2) antibody (Bethyl Lab, Montgomery, TX), RNA Polymerase II CTD4H8 (BioLegend, San Diego, CA), DHODH (E-8), DRP1 (C-5), GAPDH (0411), c-Myc (9E10), Tom20 (F-10), FisI (B-5), OPA1 (D-9), antibodies from Santa Cruz Biotechnology (Dallas, TX) and MFN2 (Abcam, Boston, MA) and Chk1, MDM2, Cyclin CDK4 and D1, and E2F1 (Proteintech, Rosemont, IL).
as §1
For orientation: In western blotting, separated proteins are transferred to a membrane and probed.

In series [3] the test system is SCLC. The note with it: relapsed / second-line SCLC patients; cited from earlier work.
Series [4] deals with pDRP1 (Ser616) in SBC3 cells. The experiment in a line: pDRP1 Ser616 immunofluorescence staining, QuPath. Type of series: cell-based, human. The note with it: SBC3, Teri overnight. As for the experimental part: (§2) SBC3 and SBC5 cells were grown on glass coverslips and treated with Teri overnight. Next, cells were fixed in 4% paraformaldehyde, permeabilized, and blocked before incubating with pDRP1 (Ser^616) antibody followed by Alexa 488 secondary antibody. This was followed by staining with Tom20 (F-10) antibody. A far-red dye was used for cytoplasmic staining. Fluorescent images were acquired on an Axio Observer 7 inverted microscope (Carl Zeiss, Jena, Germany). Nuclei and DRP1 were stained with DAPI and Alexa 488 secondary antibody. All imaging was performed using a 40×/0.95 NA Plan-Apochromat objective with a final per pixel scaling of 0.147 by 0.147 microns. Within each 3×3 field of image view (>200 cells per image), QuPath 0.2.0M9 was used to detect cell nuclei, a cytoplasmic area around the nucleus was expanded for analysis, followed by limiting the area of that blind expansion based on the presence of the cytoplasmic dye. […] The mean pDRP1 signal intensity was then measured within that area. The green intensity sum of these areas was calculated per cell and then averaged for each sample image.
(§3) Additionally, SBC3 and SBC5 cells were stained with pDRP1 Ser^616 antibody (2° ab Alexa488), and the phosphorylation level was analyzed with QuPath 0.2.0M9 software.

For series [5], the system named is pDRP1 (Ser616) in SBC5 cells. The experiment in a line: pDRP1 Ser616 immunofluorescence staining, QuPath. Type of series: cell-based, human. The conditions noted are these: SBC5, Teri overnight. As for the experimental part:
as §2, §3

For series [6], the system named is SBC3 xenograft. The experiment in a line: SBC3 mouse xenograft, Carbo/Leflu study. The class given is in vivo. As for the experimental part:
(§4) Athymic nude nu/nu mice were obtained from Charles River, Wilmington, MA, and were acclimated for a week before beginning the experiment. All animal experiments were carried out in accordance with a protocol approved by the Institutional Animal Care and Use Committee COH (IACUC #16004). For treatments, mice were divided into 4 groups with five mice per group and subcutaneously injected into one flank with 2×10^6 SBC3 or SBC5 cells suspensions in 100 μl of PBS. Treatment started on the 14th day when tumors became palpable. Two in vivo studies were done in this project. SBC3 and SBC 5 xenograft with i) vehicle control, ii) […] 50 mg/kg, iii) Leflu 7.5 mg/kg, and iv) […]/Leflu. SBC3 with i) vehicle control, ii) Lur 0.5 mg/kg, iii) Leflu 3.8 mg/kg, and iv) Lur/Leflu. Treatments were given to mice via i.p. twice a week for 6 weeks. Animals were examined daily for signs of tumor growth. Tumors were measured in two dimensions using calipers and body weights were recorded. Animals were photographed on days 1, 5, 10, 15, 20, 25, 30, 35, and 40 after treatment. Tumors were removed on day 40 and photographed. At the end of the study, the mice were euthanized by CO2 asphyxiation followed by cervical dislocation. The tumor weights were compared between groups using an unpaired Student's t-test. A portion of the tumor was fixed in 10% buffered formaldehyde solution and paraffin-embedded for immuno-staining. FFPE tumor sections were stained with pDRP Ser^616 antibody. Tumor sections were deparaffinized and rehydrated, followed by heat-mediated antigen retrieval (pH 6, Dako). After permeabilization and blocking, tumor sections were stained with pDRP1 Ser^616 antibody overnight, washed and incubated with Alexa 488 secondary antibody for one hour, mounted and observed on an LSM 880 with a 10×/0.45 NA objective (Carl Zeiss). Immunofluorescent confocal images were acquired for each treatment (magnification:100×). Mean immunofluorescence intensities were calculated with ZEN 2.3 Lite software.

For series [7], the system named is SBC5 xenograft. The experiment in a line: SBC5 mouse xenograft, Carbo/Leflu study. The class given is in vivo. The conditions noted are these: Carbo 50 mg/kg, Leflu 7.5 mg/kg, i.p. twice a week. As to the method: as §4, with “A portion of the tumor was fixed in 10% buffered formaldehyde solution and paraffin-embedded for immuno-staining. FFPE tumor sections were stained with pDRP Ser^616 antibody. Tumor sections were deparaffinized and rehydrated, followed by heat-mediated antigen retrieval (pH 6, Dako). After permeabilization and blocking, tumor sections were stained with pDRP1 Ser^616 antibody overnight, washed and incubated with Alexa 488 secondary antibody for one hour, mounted and observed on an LSM 880 with a 10×/0.45 NA objective (Carl Zeiss). Immunofluorescent confocal images were acquired for each treatment (magnification:100×).” left out

The conditions of series [8]: cited from earlier work.

In the case of `COc1ccc2[nH]c3c(c2c1)CCN[C@]31CS[C@@H]2c3c(OC(C)=O)c(C)c4c(c3[C@H](COC1=O)N1[C@@H]2[C@H]2c3c(cc(C)c(OC)c3O)C[C@@H]([C@@H]1O)N2C)OCO4` [Lurbinectedin, lurbinectedin], the “percentage of dead cells” value in series [1] is listed as “significantly increased”. Further, in series [2], the p21 level result is “upregulated”. In series [3], the ORR was 32.7% and the “median PFS” value is 3.5 months.
On to `C/C(O)=C(\C#N)C(=O)Nc1ccc(C(F)(F)F)cc1` [Teriflunomide, teriflunomide], for which the “pDRP1 Ser616 green IF signal intensity” value in series [4] and in series [5] was “significant signal intensity decreased” in each case.
With `Cc1oncc1C(=O)Nc1ccc(C(F)(F)F)cc1` [Leflunomide, leflunomide], the “pDRP1 Ser616 immunofluorescence in tumor sections” value in series [6] (SBC3 xenograft FFPE tumors) is “significant decrease”. The “reduction in tumor size/weight” value in series [6] (SBC3 xenograft, day 40, vs control) is listed as roughly 36%. The “average final tumor weight at end of study (day 40)” value in series [6] (SBC3 xenograft, Carbo 50 mg/kg, Leflu 7.5 mg/kg, i.p. twice a week) turned out to be 1.01 ± 0.14 g. The “final tumor weight (day 40)” value in series [7] was 1.49 ± 0.20 g. In addition, the safety profile result in series [8] (up to 40 mg/day, patients with Wegner's granulomatosis) is “safety profile like the 20 mg/day dose”. For the same compound, the “time to attain steady state concentrations” value in series [8] (without a loading dose, estimated, FDA label) is “two”.
